≈ marks a conversion by molar mass, not a printed value.
How the values were obtained:
[1] = test system: ALS (acetolactate syntase); assay: ALS enzyme assay (Test 1); type: biochemical, pea; details: 1,000 ppm (0.5 mg/0.5 ml)
Procedure, shortened: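 Partially purified ALS from dark-grown pea and barnyardgrass seedlings incubated 1 h at 30° C with pyruvate, TPP, MgCl2 and FAD. Compounds tested at 1,000 ppm (0.5 mg/0.5 ml). Acetoin formed detected colorimetrically at 525 nm via creatine/α-naphthol, relative to blank and acid-stopped controls.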

barnyardgrass = assay: Upland foliar application test (Test 3); type: in vivo; details: 30 g ai/a, foliar spray at 2-3 leaves, 30th day
Procedure, shortened: (§1)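 Upland-soil pots seeded with weeds and crops (incl. cotton, large crabgrass, johnsongrass, common lambsquarters), grown in greenhouse to 2-3 leaf stage. Emulsion diluted with water sprayed on foliage at 5 l per are via ULV sprayer. Weed damage and crop injury scored 30 days after spraying.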

common lambsquarters = assay: Upland foliar application test (Test 3); type: in vivo; details: 30 g ai/a, foliar spray at 2-3 leaves, 30th day
Procedure, shortened: as §1

foxtail meadow = assay: Upland foliar application test (Test 3); type: in vivo; details: 30 g ai/a, foliar spray at 2-3 leaves, 30th day
Procedure, shortened: as §1

green foxtail = assay: Upland foliar application test (Test 3); type: in vivo; details: 30 g ai/a, foliar spray at 2-3 leaves, 30th day
Procedure, shortened: as §1

johnsongrass = assay: Upland foliar application test (Test 3); type: in vivo; details: 30 g ai/a, foliar spray at 2-3 leaves, 30th day
Procedure, shortened: as §1

large crabgrass = assay: Upland foliar application test (Test 3); type: in vivo; details: 30 g ai/a, foliar spray at 2-3 leaves, 30th day
Procedure, shortened: as §1

redroot pigweed = assay: Upland foliar application test (Test 3); type: in vivo; details: 30 g ai/a, foliar spray at 2-3 leaves, 30th day
Procedure, shortened: as §1

cotton = assay: Upland foliar application test (Test 3), crop injury; type: in vivo; details: 30 g ai/a, foliar spray at 2-3 leaves, 30th day
Procedure, shortened: as §1

peanut = assay: as above; type: in vivo; details: 30 g ai/a, foliar spray at 2-3 leaves, 30th day
Procedure, shortened: as §1

soybean = assay: as above; type: in vivo; details: 30 g ai/a, foliar spray at 2-3 leaves, 30th day
Procedure, shortened: as §1

rice [2] = assay: Treatment of soil under submerged condition, pre-emergence (Test 4), injury; type: in vivo; details: 30 g ai/a granule, 30 days later
Procedure, shortened: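 Weeds were seeded or planted in submerged soil, with 2-3 leaf rice seedlings transplanted into the same pots. One day later, before weed emergence, a granule formulation of the test composition was applied. Weed damage and rice injury were scored 30 days after treatment.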

rice [3] = assay: Treatment of soil under submerged condition, post-emergence (Test 5), injury; type: in vivo; details: 30 g ai/a granule, 30 days later
Procedure, shortened: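 Weeds seeded or tubers planted in flooded soil in Wagner pots, with 2–3-leaf rice seedlings transplanted in pairs and grown in greenhouse. At barnyardgrass two-leaf stage, pots received a granule of the test composition at a predetermined amount. Weed emergence and rice injury were scored 30 days later.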

narrowleaf waterplantain = assay: Petri dish test (Test 6); type: in vivo; details: 336 h; seeds on filter paper, 25° C., 14 days; read-out: I80 (ppm)
Procedure, shortened: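 Narrowleaf waterplantain seeds placed on filter paper pre-treated with compound in acetone (solvent air-dried) in 9 cm Petri dishes with 10 ml water, grown at 25° C in light. Growth was scored after fourteen days as degree of damage against an untreated group.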

Inhibitory activity (%) Pea [1] [%]	Structure (SMILES)	Herbicidal effects Barnyardgrass (barnyardgrass)	Herbicidal effects Common lambsquarters (common lambsquarters)	Herbicidal effects Foxtail meadow (foxtail meadow)	Herbicidal effects Green foxtail (green foxtail)	Herbicidal effects Johnsongrass (johnsongrass)	Herbicidal effects Large crabgrass (large crabgrass)	Herbicidal effects Redroot pigweed (redroot pigweed)	Injury Cotton (cotton)	Injury Peanut (peanut)	Injury Soybean (soybean)	Injury Rice (rice [2])	Injury Rice (rice [3])	IC80 (narrowleaf waterplantain) [µg/mL]
10	COc1cc(OC)nc(Oc2ccccc2C=NOCC=Cc2ccc(C(F)(F)F)cc2)n1 [compound 35]	5 (0-5 (Death))	4 (6-10 (Severe damages))	5 (0-5 (Death))	5 (0-5 (Death))	5 (0-5 (Death))	5 (0-5 (Death))	4 (6-10 (Severe damages))	0 (91-100 (No damages))	0 (91-100 (No damages))	0 (91-100 (No damages))	0 (91-100 (No damages))	0 (91-100 (No damages))	6 (≈ 13.1 µM)
0	COc1cc(OC)nc(Oc2ccccc2C=NO)n1 [Compound No. 24, 2-(4,6-dimethoxy-2-pyrimidinyloxy)-benzaloxime]	4 (6-10 (Severe damages))	3 (11-40 (Medium damages))	4 (6-10 (Severe damages))	4 (6-10 (Severe damages))	5 (0-5 (Death))	4 (6-10 (Severe damages))	3 (11-40 (Medium damages))	1 (71-90 (Slight damages))	0 (91-100 (No damages))	1 (71-90 (Slight damages))	1 (71-90 (Slight damages))	1 (71-90 (Slight damages))	100 (≈ 363 µM)
11	COc1cc(OC)nc(Oc2ccccc2C=NOCC=Cc2ccccc2)n1 [Compound No. 9]	5 (0-5 (Death))	4 (6-10 (Severe damages))	5 (0-5 (Death))	5 (0-5 (Death))	5 (0-5 (Death))	5 (0-5 (Death))	5 (0-5 (Death))	0 (91-100 (No damages))	0 (91-100 (No damages))	0 (91-100 (No damages))	1 (71-90 (Slight damages))	0 (91-100 (No damages))	2 (≈ 5.11 µM)
0	COc1cc(OC)nc(Oc2ccccc2C=NOCC=Cc2ccccc2Br)n1 [compound 40]	5 (0-5 (Death))	4 (6-10 (Severe damages))	5 (0-5 (Death))	4 (6-10 (Severe damages))	5 (0-5 (Death))	4 (6-10 (Severe damages))	5 (0-5 (Death))	0 (91-100 (No damages))	0 (91-100 (No damages))	0 (91-100 (No damages))	0 (91-100 (No damages))	1 (71-90 (Slight damages))	2 (≈ 4.25 µM)
72	COC(=O)c1ccccc1Oc1nc(OC)cc(OC)n1 [A, reference compound]	5 (0-5 (Death))	4 (6-10 (Severe damages))	5 (0-5 (Death))	5 (0-5 (Death))	5 (0-5 (Death))	5 (0-5 (Death))	5 (0-5 (Death))	5 (0-5 (Death))	5 (0-5 (Death))	5 (0-5 (Death))	5 (0-5 (Death))	5 (0-5 (Death))	1 (≈ 3.45 µM)
0	COc1cc(OC)nc(Oc2ccccc2C=NOC(C)C)n1 [compound 6]	4 (6-10 (Severe damages))	4 (6-10 (Severe damages))	5 (0-5 (Death))	5 (0-5 (Death))	5 (0-5 (Death))	3 (11-40 (Medium damages))	4 (6-10 (Severe damages))	0 (91-100 (No damages))	0 (91-100 (No damages))	0 (91-100 (No damages))	0 (91-100 (No damages))	0 (91-100 (No damages))	40 (≈ 126 µM)
0	COc1cc(OC)nc(Oc2ccccc2C=NOCc2ccc(Cl)c(Cl)c2)n1 [compound 18]	4 (6-10 (Severe damages))	3 (11-40 (Medium damages))	4 (6-10 (Severe damages))	5 (0-5 (Death))	5 (0-5 (Death))	3 (11-40 (Medium damages))	4 (6-10 (Severe damages))	0 (91-100 (No damages))	0 (91-100 (No damages))	0 (91-100 (No damages))	0 (91-100 (No damages))	0 (91-100 (No damages))	67 (≈ 154 µM)
0	COc1cc(OC)nc(Oc2ccccc2C=NOCC=Cc2ccc(C)cc2)n1 [compound 36]	5 (0-5 (Death))	4 (6-10 (Severe damages))	5 (0-5 (Death))	5 (0-5 (Death))	5 (0-5 (Death))	5 (0-5 (Death))	4 (6-10 (Severe damages))	0 (91-100 (No damages))	0 (91-100 (No damages))	0 (91-100 (No damages))	0 (91-100 (No damages))	1 (71-90 (Slight damages))	4 (≈ 9.87 µM)
0	COc1cc(OC)nc(Oc2ccccc2C=NOCC=CCl)n1 [compound 11]	5 (0-5 (Death))	4 (6-10 (Severe damages))	5 (0-5 (Death))	5 (0-5 (Death))	5 (0-5 (Death))	5 (0-5 (Death))	5 (0-5 (Death))	0 (91-100 (No damages))	0 (91-100 (No damages))	0 (91-100 (No damages))	1 (71-90 (Slight damages))	0 (91-100 (No damages))	40 (≈ 114 µM)
